Laboratory results from US20130084322A1, “DRUG-IMPREGNATED BIODEGRADABLE STENT AND METHODS OF MAKING THE SAME” (Tim Wu, priority 2010, published 2013).
“Also recorded” adds a separate entry of the source.

Assays:
[1] = after releasing from stent; through specific binding to binding proteins; cited from earlier work
[2] = HPLC analysis of paclitaxel in the formed tube/stent (stability to extrusion); type: physicochemical; conditions: extraction in 50% ethanol and 50% methanol overnight at room temperature; FIG. 2
Method: The 10 μl extracting solutions were further analyzed by HPLC (HP16 series 1090, Hewlett-Packard Co. Palo Alto, Calif.). The samples were analyzed on a C18-reverse phase column (HP: 4.6×100 mm RP18) using a mobile phase consisting of 0.005% TFA buffer (0.05 ml Trifluoroacetic acid in 1000 ml acetonitrile) delivered at a flow rate of 1.0 mL/min.

| Structure (SMILES) | retention in blood vessel wall [1] | stability of paclitaxel during extrusion (HPLC peaks, pre-extrusion vs stent samples) [2] |
| --- | --- | --- |
| CO[C@H]1C[C@@H]2CC[C@@H](C)[C@@](O)(O2)C(=O)C(=O)N2CCCC[C@H]2C(=O)O[C@H]([C@H](C)C[C@@H]2CC[C@@H](O)[C@H](OC)C2)CC(=O)[C@H](C)/C=C(\C)[C@@H](O)[C@@H](OC)C(=O)[C@H](C)C[C@H](C)/C=C/C=C/C=C/1C [sirolimus] | up to three days |  |
| CC(=O)O[C@H]1C(=O)[C@@]2(C)[C@H]([C@H](OC(=O)c3ccccc3)[C@]3(O)C[C@H](OC(=O)[C@H](O)[C@@H](NC(=O)c4ccccc4)c4ccccc4)C(C)=C1C3(C)C)[C@]1(OC(C)=O)CO[C@@H]1C[C@@H]2O [paclitaxel] |  | not decomposed during extrusion; also recorded: survived the elevated extrusion temperature and are stable inside the stent strut |
